Measured values taken from patent publication US9073940B2, “Tricyclic pyrazol amine derivatives” (MERCK SERONO SA, priority 2009, dated 2015).
pIC50: −log10 of the molar value.

System: 4 PI3K isoforms (Human recombinant GST-PI3K)
Experiment: PI3K scintillation proximity assay, best IC50 obtained with the four isoforms (alpha, beta, delta, gamma)
Format: biochemical
Conditions: best IC50 obtained with the four isoforms of PI3K; read-out: Best potency measured on the 4 PI3K isoforms

SMILES	pIC50
O=C(c1nn(-c2ccc3[nH]ncc3c2)c2c1CS(=O)(=O)c1ccccc1-2)N1CCOCC1 [Example 203, 1-(1H-Indazol-5-yl)-3-(morpholin-4-ylcarbonyl)-1,4-dihydrothiochromeno[4,3-c]pyrazole 5,5-dioxide]	5.79
O=C(c1nn(-c2ccc3nn(Cc4ccccc4)cc3c2)c2c1CS(=O)(=O)c1ccccc1-2)N1CCOCC1 [Example 204, 1-(2-Benzyl-2H-indazol-5-yl)-3-(morpholin-4-ylcarbonyl)-1,4-dihydrothiochromeno[4,3-c]pyrazole 5,5-dioxide]	5.68
CN(C)S(=O)(=O)c1cccc(-n2nc(C(=O)N3CCOCC3)c3c2-c2ccccc2S(=O)(=O)C3)c1 [Example 207, N,N-Dimethvl-3-[3-(morpholin-4-ylcarbonyl)-5,5-dioxidothiochromeno[4,3-c]pyrazol-1 (4H)-yl]benzenesulfonamide]	6.19
CN1CCC(Cn2nc(C(=O)N3CCOCC3)c3c2-c2ccccc2S(=O)(=O)C3)CC1 [Example 208, 1-[(1-Methylpiperidin-4-yl)methyl]-3-(morpholin-4-ylcarbonyl)-1,4-dihydrothiochromeno[4,3-c]pyrazole 5,5-dioxide]	5.58
O=C(Nc1cccc(-n2nc(C(=O)N3CCOCC3)c3c2-c2ccccc2S(=O)(=O)C3)c1)N1CCOCC1 [Example 209, N-{3-[3-(Morpholin-4-ylcarbonyl)-5,5-dioxidothiochromeno[4,3-c]pyrazol-1 (4H)-yl]phenyl)morpholine-4-carboxamide]	5.45
O=C(c1nn(-c2ccc(CN3CCOCC3)cc2)c2c1CS(=O)(=O)c1ncccc1-2)N1CCOCC1 [Example 211]	6.40
CNc1cccc2c1S(=O)(=O)Cc1c(C(=O)N3CCOCC3)nn(-c3ccccc3)c1-2 [Example 212, N-Methyl-3-(morpholin-4-ylcarbonyl)-1-phenyl-1,4-dihydrothiochromeno[4,3-c]pyrazol-6-amine 5,5-dioxide]	5.45
COCc1noc(-c2cccc(-n3nc(C(=O)N4CCOCC4)c4c3-c3ccccc3S(=O)(=O)C4)c2)n1 [Example 214, 1-{3-[3-(Methoxymethyl)-1,2,4-oxadiazol-5-yl]phenyl)-3-(morpholin-4-ylcarbonyl)-1,4-dihydrothiochromeno[4,3-c]pyrazole 5,5-dioxide]	5.38
O=C(c1nn(C2CCC(CN3CCOCC3)CC2)c2c1CS(=O)(=O)c1ccccc1-2)N1CCOCC1 (centres unmarked) [Example 215, 3-(Morpholin-4-ylcarbonyl)-1-[4-(morpholin-4-ylmethyl)cyclohexyl]-1,4-dihydrothiochromeno[4,3-c]pyrazole 5,5-dioxide]	6.04
O=C(c1nn(-c2ccc(CN3CCOCC3)nc2)c2c1CS(=O)(=O)c1ccccc1-2)N1CCOCC1 [Example 216, 3-(Morpholin-4-ylcarbonyl)-1-[6-(morpholin-4-ylmethyl)pyridin-3-yl]-1,4-dihydrothiochromeno[4,3-c]pyrazole 5,5-dioxide]	6.21
O=C(c1nn(-c2ccc(CN3CCC(F)CC3)nc2)c2c1CS(=O)(=O)c1ccccc1-2)N1CCOCC1 [Example 217, 1-{6-[(4-Fluoropiperidin-1-yl)methyl]pyridin-3-yl}-3-(morpholin-4-ylcarbonyl)-1,4-dihydrothiochromeno[4,3-c]pyrazole 5,5-dioxide]	5.92
O=C(c1nn(C2CCCN(c3ccccc3)C2)c2c1CS(=O)(=O)c1ccccc1-2)N1CCOCC1 (centres unmarked) [Example 218, 3-(Morpholin-4-ylcarbonyl)-1-(1-phenylpiperidin-3-yl)-1,4-dihydrothiochromeno[4,3-c]pyrazole 5,5-dioxide]	6.33
O=C(c1nn(C2CCCN(CCc3ccccc3)C2)c2c1CS(=O)(=O)c1ccccc1-2)N1CCOCC1 (centres unmarked) [Example 219, 3-(Morpholin-4-ylcarbonyl)-1-[1-(2-phenylethyl)piperidin-3-yl]-1,4-dihydrothiochromeno[4,3-c]pyrazole 5,5-dioxide]	6.15
CC(C)(C)CCN1CCCC(n2nc(C(=O)N3CCOCC3)c3c2-c2ccccc2S(=O)(=O)C3)C1 (centres unmarked) [Example 220, 1-[1-(3,3-Dimethylbutyl)piperidin-3-yl]-3-(morpholin-4-ylcarbonyl)-1,4-dihydrothiochromeno[4,3-c]pyrazole 5,5-dioxide]	6.23
O=C(c1nn(C2CCCN(CCC(F)(F)F)C2)c2c1CS(=O)(=O)c1ccccc1-2)N1CCOCC1 (centres unmarked) [Example 222, 3-(Morpholin-4-ylcarbonyl)-1-[1-(3,3,3-trifluoropropyl)piperidin-3-yl]-1,4-dihydrothiochromeno[4,3-c]pyrazole 5,5-dioxide]	6.83
O=C(c1nn(C2CCCN(CCC3CCOCC3)C2)c2c1CS(=O)(=O)c1ccccc1-2)N1CCOCC1 (centres unmarked) [Example 224, 3-(Morpholin-4-ylcarbonyl)-1-{1-[2-(tetrahydro-2H-pyran-4-yl)ethyl]piperidin-3-yl)-1,4-dihydrothiochromeno[4,3-c]pyrazole 5,5-dioxide]	7.27

SMILES	pIC50
COCCOCCN1CCCC(n2nc(C(=O)N3CCOCC3)c3c2-c2ccccc2S(=O)(=O)C3)C1 (centres unmarked) [Example 225, 1-{1-[2-(2-Methoxyethoxy)ethyl]piperidin-3-yl}-3-(morpholin-4-ylcarbonyl)-1,4-dihydrothiochromeno[4,3-c]pyrazole 5,5-dioxide]	6.20
O=C(c1nn(-c2ccc(CN3CCCC3)cc2)c2c1CS(=O)(=O)c1ccccc1-2)N1CCOCC1 [Example 228, 3-(Morpholin-4-ylcarbonyl)-1-[4-(pyrrolidin-1-ylmethyl)phenyl]-1,4-dihydrothiochromeno[4,3-c]pyrazole 5,5-dioxide]	6.55
CS(=O)(=O)C1CCN(Cc2ccc(-n3nc(C(=O)N4CCOCC4)c4c3-c3ccccc3S(=O)(=O)C4)cc2)C1 (centres unmarked) [Example 229, 1-(4-{[3-(Methylsulfonyl)pyrrolidin-1-yl]methyl}phenyl)-3-(morpholin-4-ylcarbonyl)-1,4-dihydrothiochromeno[4,3-c]pyrazole 5,5-dioxide]	6.04
CCc1noc(Cn2nc(C(=O)N3CCOCC3)c3c2-c2ccccc2S(=O)(=O)C3)n1 [Example 230, 1-[(3-Ethyl-1,2,4-oxadiazol-5-yl)methyl]-3-(morpholin-4-ylcarbonyl)-1,4-dihydrothiochromeno[4,3-c]pyrazole 5,5-dioxide]	5.72
COC(=O)c1ccc(Cn2nc(C(=O)N3CCOCC3)c3c2-c2ccccc2S(=O)(=O)C3)o1 [Example 231, Methyl 5-{[3-(morpholin-4-ylcarbonyl)-5,5-dioxidothiochromeno[4,3-c]pyrazol-1(4H)-yl]methyl}-2-furoate]	6.37
COc1cccc(Cn2nc(C(=O)N3CCOCC3)c3c2-c2ccccc2S(=O)(=O)C3)c1 [Example 232, 1-(3-Methoxybenzyl)-3-(morpholin-4-ylcarbonyl)-1,4-dihydrothiochromeno[4,3-c]pyrazole 5,5-dioxide]	5.93
CC(C)CCOC1CCN(Cc2ccc(-n3nc(C(=O)N4CCOCC4)c4c3-c3ccccc3S(=O)(=O)C4)cc2)C1 (centres unmarked) [Example 233, 1-(4-{[3-(3-Methylbutoxy)pyrrolidin-1-yl]methyl}phenyl)-3-(morpholin-4-ylcarbonyl)-1,4-dihydrothiochromeno[4,3-c]pyrazole 5,5-dioxide]	6.78
COC1CCN(Cc2cccc(-n3nc(C(=O)N4CCOCC4)c4c3-c3ccccc3S(=O)(=O)C4)c2)CC1 [Example 234, 1-{3-[(4-Methoxypiperidin-1-yl)methyl]phenyl}-3-(morpholin-4-ylcarbonyl)-1,4-dihydrothiochromeno[4,3-c]pyrazole 5,5-dioxide]	6.62
CC(C)CCOC1CCN(Cc2cccc(-n3nc(C(=O)N4CCOCC4)c4c3-c3ccccc3S(=O)(=O)C4)c2)C1 (centres unmarked) [Example 235, 1-(3-{[3-(3-Methylbutoxy)pyrrolidin-1-yl]methyl}phenyl)-3-(morpholin-4-ylcarbonyl)-1,4-dihydrothiochromeno[4,3-c]pyrazole 5,5-dioxide]	6.41
O=C(c1nn(-c2cccc(CN3CCSCC3)c2)c2c1CS(=O)(=O)c1ccccc1-2)N1CCOCC1 [Example 236, 3-(Morpholin-4-ylcarbonyl)-1-[3-(thiomorpholin-4-ylmethyl)phenyl]-1,4-dihydrothiochromeno[4,3-c]pyrazole 5,5-dioxide]	6.63
O=C(c1nn(-c2cccc(CN3CCC(O)CC3)c2)c2c1CS(=O)(=O)c1ccccc1-2)N1CCOCC1 [Example 237, 1-{3-[3-(Morpholin-4-ylcarbonyl)-5,5-dioxidothiochromeno[4,3-c]pyrazol-1 (4H)-yl]benzyl}piperidin-4-ol]	6.24
O=C(O)c1nn(-c2ccc(CN3CCOCC3)cc2)c2c1CS(=O)(=O)c1ccccc1-2 [Example 238, 1-[4-(Morpholin-4-ylmethyl)phenyl]-1,4-dihydrothiochromeno[4,3-c]pyrazole-3-carboxylic acid 5,5-dioxide]	5.39
O=C(c1nn(Cc2nc3ccccc3s2)c2c1CS(=O)(=O)c1ccccc1-2)N1CCOCC1 [Example 239, 1-(1,3-Benzothiazol-2-ylmethyl)-3-(morpholin-4-ylcarbonyl)-1,4-dihydrothiochromeno[4,3-c]pyrazole 5,5-dioxide]	5.83
O=C(c1nn(Cc2cc(Cl)cs2)c2c1CS(=O)(=O)c1ccccc1-2)N1CCOCC1 [Example 240, 1-[(4-Chloro-2-thienyl)methyl]-3-(morpholin-4-ylcarbonyl)-1,4-dihydrothiochromeno[4,3-c]pyrazole 5,5-dioxide]	6.20
O=C(c1nn(-c2cccc(CN3CCC(F)CC3)c2)c2c1CS(=O)(=O)c1ccccc1-2)N1CCOCC1 [Example 242, 1-{3-[(4-Fluoropiperidin-1-yl)methyl]phenyl}-3-(morpholin-4-ylcarbonyl)-1,4-dihydrothiochromeno[4,3-c]pyrazole 5,5-dioxide]	6.36
CS(=O)(=O)C1CCN(Cc2cccc(-n3nc(C(=O)N4CCOCC4)c4c3-c3ccccc3S(=O)(=O)C4)c2)C1 (centres unmarked) [Example 243, 1-(3-{[3-(Methylsulfonyl)pyrrolidin-1-yl]methyl}phenyl)-3-(morpholin-4-ylcarbonyl)-1,4-dihydrothiochromeno[4,3-c]pyrazole 5,5-dioxide]	6.33
